Drawing on PMC12106687 (Nature Communications, 2025), this text covers RH/L for one compound.

The target of this assay is HECTD1 (Homo sapiens, UniProt Q9ULT8). Kind of assay: in-cell competitive QTRP. The conditions noted are these: covalent; C1368; […], […] h in HEK293T cells. It is filed as biochemical.
HECTD1, sequence (Q9ULT8 whole entry): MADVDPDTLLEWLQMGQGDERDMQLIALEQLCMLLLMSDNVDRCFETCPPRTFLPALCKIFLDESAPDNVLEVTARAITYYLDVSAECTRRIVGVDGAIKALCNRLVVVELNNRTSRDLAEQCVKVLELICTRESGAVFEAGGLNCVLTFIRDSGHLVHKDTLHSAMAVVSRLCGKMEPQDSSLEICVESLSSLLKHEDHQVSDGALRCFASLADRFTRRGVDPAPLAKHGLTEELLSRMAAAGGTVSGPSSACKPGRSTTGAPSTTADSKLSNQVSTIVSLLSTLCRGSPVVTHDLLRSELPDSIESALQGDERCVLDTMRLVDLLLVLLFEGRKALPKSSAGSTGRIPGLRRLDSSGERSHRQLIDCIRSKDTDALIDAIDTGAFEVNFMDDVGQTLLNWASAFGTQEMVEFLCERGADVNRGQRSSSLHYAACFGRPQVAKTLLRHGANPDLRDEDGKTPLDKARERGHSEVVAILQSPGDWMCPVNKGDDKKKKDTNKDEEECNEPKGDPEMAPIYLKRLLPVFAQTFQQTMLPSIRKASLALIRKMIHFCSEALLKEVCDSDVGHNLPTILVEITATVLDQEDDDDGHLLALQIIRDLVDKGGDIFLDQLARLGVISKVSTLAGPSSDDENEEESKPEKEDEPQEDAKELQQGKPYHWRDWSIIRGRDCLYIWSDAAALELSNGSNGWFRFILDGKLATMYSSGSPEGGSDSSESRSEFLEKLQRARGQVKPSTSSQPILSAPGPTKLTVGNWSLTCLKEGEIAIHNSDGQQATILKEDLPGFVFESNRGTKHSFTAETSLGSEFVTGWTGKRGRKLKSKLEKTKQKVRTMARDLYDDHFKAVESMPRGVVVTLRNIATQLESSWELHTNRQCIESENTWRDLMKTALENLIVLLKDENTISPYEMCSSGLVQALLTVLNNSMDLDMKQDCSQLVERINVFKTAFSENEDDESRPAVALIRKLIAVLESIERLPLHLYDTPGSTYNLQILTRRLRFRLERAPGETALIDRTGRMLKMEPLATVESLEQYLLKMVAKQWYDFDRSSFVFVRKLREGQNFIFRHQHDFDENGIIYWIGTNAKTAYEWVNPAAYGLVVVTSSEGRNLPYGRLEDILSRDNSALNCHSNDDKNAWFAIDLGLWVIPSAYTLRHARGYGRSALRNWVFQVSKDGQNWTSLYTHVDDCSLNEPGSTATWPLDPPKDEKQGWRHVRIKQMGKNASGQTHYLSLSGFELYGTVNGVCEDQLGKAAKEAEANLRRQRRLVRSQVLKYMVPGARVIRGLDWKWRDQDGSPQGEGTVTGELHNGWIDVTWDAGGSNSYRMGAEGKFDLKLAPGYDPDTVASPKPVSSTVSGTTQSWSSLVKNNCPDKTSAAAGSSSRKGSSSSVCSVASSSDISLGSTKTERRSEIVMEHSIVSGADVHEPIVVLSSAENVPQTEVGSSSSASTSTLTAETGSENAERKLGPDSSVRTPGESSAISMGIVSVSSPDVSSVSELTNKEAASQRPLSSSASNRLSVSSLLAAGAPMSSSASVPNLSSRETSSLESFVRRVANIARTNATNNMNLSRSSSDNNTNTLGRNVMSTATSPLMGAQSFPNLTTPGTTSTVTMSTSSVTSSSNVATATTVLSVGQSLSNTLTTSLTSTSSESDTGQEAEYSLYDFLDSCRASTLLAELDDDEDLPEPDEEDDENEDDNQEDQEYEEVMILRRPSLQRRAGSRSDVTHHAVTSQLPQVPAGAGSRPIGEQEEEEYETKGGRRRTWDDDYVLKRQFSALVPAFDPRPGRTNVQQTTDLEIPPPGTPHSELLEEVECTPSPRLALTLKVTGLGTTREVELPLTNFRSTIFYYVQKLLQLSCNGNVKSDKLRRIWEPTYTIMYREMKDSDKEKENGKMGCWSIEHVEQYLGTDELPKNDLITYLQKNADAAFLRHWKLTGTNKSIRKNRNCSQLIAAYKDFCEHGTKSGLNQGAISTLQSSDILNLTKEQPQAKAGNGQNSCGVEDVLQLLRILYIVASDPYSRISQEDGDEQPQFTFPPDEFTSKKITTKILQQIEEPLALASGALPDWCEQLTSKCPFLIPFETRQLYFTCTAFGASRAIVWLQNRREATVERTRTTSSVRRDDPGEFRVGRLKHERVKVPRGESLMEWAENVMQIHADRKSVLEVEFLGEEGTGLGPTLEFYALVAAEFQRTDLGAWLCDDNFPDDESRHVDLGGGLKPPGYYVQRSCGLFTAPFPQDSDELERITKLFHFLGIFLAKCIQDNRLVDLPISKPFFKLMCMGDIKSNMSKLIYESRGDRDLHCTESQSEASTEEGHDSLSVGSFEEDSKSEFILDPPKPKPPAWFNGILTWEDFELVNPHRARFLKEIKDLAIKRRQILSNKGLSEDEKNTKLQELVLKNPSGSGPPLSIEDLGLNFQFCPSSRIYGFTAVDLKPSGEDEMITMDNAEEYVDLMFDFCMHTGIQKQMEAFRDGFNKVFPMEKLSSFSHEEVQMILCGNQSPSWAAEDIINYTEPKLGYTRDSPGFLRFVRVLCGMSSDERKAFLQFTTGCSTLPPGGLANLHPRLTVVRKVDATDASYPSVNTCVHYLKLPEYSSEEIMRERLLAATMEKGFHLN

`C=C(CC)C(=O)c1ccc(OCC(=O)O)c(Cl)c1Cl` [etacrynic acid]: the RH/L entry is “the etacrynic acid-engaged C1368 of HECTD1 is spatially distant from the active site”.
